Values of other authors, collected in patent publication US20260240855A1 (priority 2023, published 2026).

Test system: extracellular signal-regulated kinase (ERK)
Details: preclinical studies

Structure (SMILES): C=CC(=O)N1CCN(c2nc(=O)n(-c3c(C)ccnc3C(C)C)c3nc(-c4c(O)cccc4F)c(F)cc23)[C@@H](C)C1 (atropisomer, axis not shown; (M)) [Sotorasib, 6-fluoro-7-(2-fluoro-6-hydroxyphenyl)-(1M)-1-[4-methyl-2-(propan-2-yl)pyridin-3-yl]-4-[(2S)-2-methyl-4-(prop-2-enoyl)piperazin-1-yl]pyrido[2,3-d]pyrimidin-2(1H)-one]
- phosphorylation of extracellular signal-regulated kinase (ERK): inhibited nearly all detectable phosphorylation
